The source of these data is patent CN103800339A, “一类治疗精神分裂症的化合物及其用途” (Individual, priority 2012, dated 2014).

The assay deals with ketamine schizophrenia model rats (大鼠分裂症氯胺酮模型大鼠). Kind of assay: Social interaction test in ketamine-induced schizophrenia model rats (total activity time, aggressive and non-aggressive behaviour). The settings on record: n=20, mean±SD. It counts as in vivo, rat.
Setting [1] is: day of drug withdrawal, after 7 days i.m. dosing (compounds A-E 1 mg/kg; risperidone 2 mg/kg), ketamine model Wistar rats, 7 min test, * P<0.05, ** P<0.01 vs model.

For the molecule `Cc1nc2n(c(=O)c1CCN1CCC(c3noc4cc(F)ccc34)CC1)CCCC2` [利培酮], the total activity time (7 days after drug withdrawal, after 7 days i.m. dosing (compounds A-E 1 mg/kg; risperidone 2 mg/kg), ketamine model Wistar rats, 7 min test, * P<0.05, ** P<0.01 vs model) came to 18.2±6.3. Also, the total activity time (before dosing (baseline), male Wistar rats, ketamine 30 mg/kg i.p. 5 days) is recorded as 13.9±2.9. In addition, under setting [1], the “number of aggressive behaviours” value is reported as 3.1±1.5, the “number of non-aggressive behaviours” value is 6.3±3.9 and the total activity time is 23.2±6.1.
